Measurements published in patent publication US20130115293A1, “Therapeutic Polymeric Nanoparticles Comprising Corticosteroids and Methods of Making and Using Same” (priority 2009, published 2013).
Several values for one entry are separate records, joined by “and”; a condition that tells them apart may be missing. Identical values can stand only once. Like-named read-outs stand apart in the source and are kept apart here. Values belong to the compound of their own block, whether it stands above or below them.

How the values were obtained:
[1] = Solubility of drug in beta cyclodextrin (BCD) release medium; format: physicochemical
Description: For in vitro release studies using the procedure of Example 3, beta cyclodextrin (BCD) was evaluated as a solubilizer for maintaining sink conditions during the release of ciclesonide into the release medium.

[2] = Rat study: pharmacokinetics, plasma levels by LCMS; format: in vivo, Rats (male Sprague Dawley); conditions: single intravenous dose 0.5 mg/kg; for AUC(0-inf) / clearance / Cmax / Vd / half-life: male, Sprague Dawley, iv, 0.5 mg/kg
Description: Rats (male Sprague Dawley, approximately 300 g with jugular cannulae) were given a single intravenous dose of 0.5 mg/kg of budesonide or passively targeted nanoparticles (PTNP) encapsulating budesonide (prepared as in Example 7) at time=0. At various times after dosing, blood samples were collected from the jugular cannulae into tubes containing lithium heparin, and plasma was prepared. Plasma levels were determined by extraction of the budesonide from plasma followed by LCMS analysis.

indomethacin-induced IBD = test: Rat model of inflammatory bowel disease (indomethacin induced); format: in vivo, rats; conditions: for intestinal score decrease towards normal: days -1 to 3, scored day 4; for small intestine weight decrease toward normal: days -1 to 3, weighed day 4
Description: Budesonide and Budesonide PTNP were compared in a model of inflammatory bowel disease (IBD) as an efficacy model of inflammation. In this model, female rats were given two subcutaneous doses of 8 mg/kg indomethacin at 24 hour intervals to induce lesions resembling those occurring in Crohn's disease in the small intestine. Intravenous daily treatment with vehicle, budesonide (0.02, 0.2 or 2 mg/kg) or budesonide PTNP (0.02, 0.2 or 2 mg/kg) or oral daily treatment with Dexamethasone (0.1 mg/kg) was initiated one day before indomethacin treatment (day −1) and continued for 5 total days (days −1 to 3). Animals were euthanized on day 4, and a 10 cm area at risk in the small intestine was scored for gross pathology and weighed.
Using a disease scoring system in which a score of 0 is normal, and a score of 5 indicates death due to IBD symptoms, normal rats have an average score of 0, and an average intestinal weight of 0.488 g.

[ciclesonide] ([1]; 10% wt BCD): 133 µg/mL | [ciclesonide] ([1]; […] wt BCD): 17.58 µg/mL
SMILES: CC(C)C(=O)OCC(=O)[C@@]12O[C@H](C3CCCCC3)O[C@@H]1C[C@H]1[C@@H]3CCC4=CC(=O)C=C[C@]4(C)[C@H]3[C@@H](O)C[C@@]12C [ciclesonide]

[MOM] ([1]; 10% wt BCD in PBS): 93.5 µg/mL | [MOM] ([1]; […] wt BCD in PBS): 33.42 µg/mL
SMILES: C[C@@H]1C[C@H]2[C@@H]3CCC4=CC(=O)C=C[C@]4(C)[C@@]3(Cl)[C@@H](O)C[C@]2(C)[C@@]1(OC(=O)c1ccco1)C(=O)CCl [MOM, Mometasone Furoate]

AUC(0-inf) ([2]; average of 6 rats, read-out: AUCinf (hr * ng/mL), Avg): 148 ng·h/mL | clearance ([2]; average of 6 rats, read-out: Cl (mL/hr/kg), Avg (converted)): 3480 mL/h/kg | Cmax ([2]; average of 6 rats, read-out: Cmax (ng/mL), Avg): 286 ng/mL | Vd ([2]; average of 6 rats, read-out: Vz (mL/kg), Avg): 3740 mL/kg | half-life ([2]; average of 6 rats, read-out: t1/2 (hr), Avg (converted)): 0.75 h | AUC(0-inf) ([2]; individual animals, read-out: AUCinf (hr * ng/mL), individual rats): 159 ng·h/mL | clearance ([2]; individual animals, read-out: Cl (mL/hr/kg), individual rats (converted)): 3140 mL/h/kg | Cmax ([2]; individual animals, read-out: Cmax (ng/mL), individual rats): 324 ng/mL | Vd ([2]; individual animals, read-out: Vz (mL/kg), individual rats): 3310 mL/kg | half-life ([2]; individual animals, read-out: t1/2 (hr), individual rats (converted)): 0.73 h
SMILES: CCCC1O[C@@H]2C[C@H]3[C@@H]4CCC5=CC(=O)C=C[C@]5(C)[C@H]4[C@@H](O)C[C@]3(C)[C@]2(C(=O)CO)O1 (some centres unmarked) [Budesonide, budesonide]
Cl (mL/hr/kg), individual rats ([2]; individual animals): 3966 mL/h/kg and 4611 mL/h/kg and 3104 mL/h/kg and 3151 mL/h/kg and 2892 mL/h/kg | Cmax (ng/mL), individual rats ([2]; individual animals): 241 ng/mL and 226 ng/mL and 337 ng/mL and 306 ng/mL and 279 ng/mL | Vz (mL/kg), individual rats ([2]; individual animals): 4291 mL/kg and 4937 mL/kg and 3104 mL/kg and 3191 mL/kg and 3627 mL/kg | intestinal score decrease towards normal (indomethacin-induced IBD; 0.02 mg/kg intravenous daily): 52% | small intestine weight decrease toward normal (indomethacin-induced IBD; 0.02 mg/kg intravenous daily): 52% | intestinal score decrease towards normal (indomethacin-induced IBD; 0.2 mg/kg intravenous daily): 53% | small intestine weight decrease toward normal (indomethacin-induced IBD; 0.2 mg/kg intravenous daily): 53% | intestinal score decrease towards normal (indomethacin-induced IBD; 2 mg/kg intravenous daily): 59% | small intestine weight decrease toward normal (indomethacin-induced IBD; 2 mg/kg intravenous daily): 59%
